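48-hour exposure; five concentrations; linearly interpolated endpoints. GI50 = concentration required for 50% inhibition of growth.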 Activity calls are given as the source filed them. Cut-off read from the data, not from the text of the source: active = GI50 up to about 1.1 µM and inactive = higher.
Columns and labels:
Assay in all cases: DTP human tumour cell line panel, 48 h
HCC 2998 = system: HCC 2998
NCI-H460 = system: NCI-H460
SNB-19 = system: SNB-19
SK-OV-3 = system: SK-OV-3
HOP-92 = system: HOP-92
UACC-62 = system: UACC-62
UACC-257 = system: UACC-257
EKVX = system: EKVX
SN12C = system: SN12C
A498 = system: A498
SK-MEL-5 = system: SK-MEL-5
HT-29 = system: HT-29
ACHN = system: ACHN
SNB-75 = system: SNB-75
UO-31 = system: UO-31
SF-268 = system: SF-268
IGROV-1 = system: IGROV-1
U-251 = system: U-251

Row | SMILES | GI50 (HCC 2998) | GI50 (NCI-H460) | GI50 (SNB-19) | GI50 (SK-OV-3) | GI50 (HOP-92) | GI50 (UACC-62) | GI50 (UACC-257) | GI50 (EKVX) | GI50 (SN12C) | GI50 (A498) | GI50 (SK-MEL-5) | GI50 (HT-29) | GI50 (ACHN) | GI50 (SNB-75) | GI50 (UO-31) | GI50 (SF-268) | GI50 (IGROV-1) | GI50 (U-251)
1 | O=C(/C=C/c1ccccc1O)c1ccccc1O | > 100 µM (inactive) | > 100 µM (inactive) | > 100 µM (inactive) | > 100 µM (inactive) | 46.7 µM (inactive) | > 100 µM (inactive) | > 100 µM (inactive) | > 100 µM (inactive) | > 100 µM (inactive) | > 100 µM (inactive) | > 100 µM (inactive) | > 100 µM (inactive) | > 100 µM (inactive) | > 100 µM (inactive) | > 100 µM (inactive) | > 100 µM (inactive) | > 100 µM (inactive) | > 100 µM (inactive)
2 | COC(=O)C[C@H]1CCC2(OCCO2)[C@]1(C)C(=O)OC |  | > 100 µM (inactive) | > 100 µM (inactive) | > 100 µM (inactive) | > 100 µM (inactive) | > 100 µM (inactive) | > 100 µM (inactive) | > 100 µM (inactive) | > 100 µM (inactive) | > 100 µM (inactive) | > 100 µM (inactive) | > 100 µM (inactive) | > 100 µM (inactive) | > 100 µM (inactive) | > 100 µM (inactive) | > 100 µM (inactive) | > 100 µM (inactive) | > 100 µM (inactive)
3 | CN(C)CCC(=O)/C=C\c1ccccc1 |  | 18.9 µM (inactive) | 39.2 µM (inactive) |  | 16.6 µM (inactive) | 17.4 µM (inactive) | 17.3 µM (inactive) | 18.7 µM (inactive) | 16.6 µM (inactive) | 20 µM (inactive) | 17.6 µM (inactive) | 19.5 µM (inactive) | 18.2 µM (inactive) | 60.1 µM (inactive) | 17.6 µM (inactive) |  | 24.5 µM (inactive) | 17.5 µM (inactive)
4 | CC(C)(CN1CCCCC1)C(=O)/C=C/c1ccc(Br)cc1 | 16.5 µM (inactive) |  | 2.01 µM (inactive) | 3.04 µM (inactive) | 0.875 µM (active) | 6.56 µM (inactive) | 6.31 µM (inactive) | 2.12 µM (inactive) | 2.57 µM (inactive) | 2.58 µM (inactive) | 4.67 µM (inactive) | 3.1 µM (inactive) | 3.4 µM (inactive) | 5.89 µM (inactive) |  | 2.34 µM (inactive) | 2.79 µM (inactive) | 2.65 µM (inactive)
5 | CCOC(=O)C(NC(=O)CC)(Nc1ccc(F)cc1F)C(F)(F)F (configuration not stated) | > 100 µM (inactive) |  | > 100 µM (inactive) | > 100 µM (inactive) |  |  | > 100 µM (inactive) | > 100 µM (inactive) | > 100 µM (inactive) | > 100 µM (inactive) | > 100 µM (inactive) | > 100 µM (inactive) | > 100 µM (inactive) | 83 µM (inactive) | 11.8 µM (inactive) | > 100 µM (inactive) | > 100 µM (inactive) | > 100 µM (inactive)
6 | CC1(C)OC2C(CCP(=O)(O)O)OC(c3nc(C(N)=O)cs3)C2O1 (configuration not stated) | > 100 µM (inactive) | > 100 µM (inactive) | > 100 µM (inactive) | > 100 µM (inactive) | > 100 µM (inactive) | > 100 µM (inactive) | > 100 µM (inactive) | > 100 µM (inactive) | > 100 µM (inactive) | > 100 µM (inactive) |  | > 100 µM (inactive) | > 100 µM (inactive) | > 100 µM (inactive) | > 100 µM (inactive) | > 100 µM (inactive) | > 100 µM (inactive) | > 100 µM (inactive)
7 | CCN(CC)CCCCC1CCN(CC(=O)N2c3ccccc3NC(=O)CC2C)CC1 (configuration not stated) | > 100 µM (inactive) | > 100 µM (inactive) | > 100 µM (inactive) | > 100 µM (inactive) | > 100 µM (inactive) | > 100 µM (inactive) | > 100 µM (inactive) | > 100 µM (inactive) | > 100 µM (inactive) | > 100 µM (inactive) | 98.4 µM (inactive) | > 100 µM (inactive) | > 100 µM (inactive) | > 100 µM (inactive) | > 100 µM (inactive) | > 100 µM (inactive) | > 100 µM (inactive) | > 100 µM (inactive)
8 | CCCCCCCCCCCCCC(=O)OCC1OC(n2cc(F)c(=O)[nH]c2=O)C(N)C(OC(=O)CCCCCCCCCCCCC)C1O (configuration not stated) | > 100 µM (inactive) | > 100 µM (inactive) | > 100 µM (inactive) | > 100 µM (inactive) | > 100 µM (inactive) | > 100 µM (inactive) | > 100 µM (inactive) | > 100 µM (inactive) | > 100 µM (inactive) | > 100 µM (inactive) | > 100 µM (inactive) | > 100 µM (inactive) | > 100 µM (inactive) | > 100 µM (inactive) | > 100 µM (inactive) | > 100 µM (inactive) |  | > 100 µM (inactive)
9 | C=C(CS(=O)(=O)c1ccccc1)C(=O)OCC | 19.4 µM (inactive) | 18.7 µM (inactive) | 20 µM (inactive) | 14.4 µM (inactive) | 21.4 µM (inactive) | 4.74 µM (inactive) | 12.8 µM (inactive) | 19.7 µM (inactive) | 16.3 µM (inactive) |  |  | 11.2 µM (inactive) | 15.5 µM (inactive) | 17.4 µM (inactive) | 20 µM (inactive) | 19.6 µM (inactive) | 19 µM (inactive) | 16.9 µM (inactive)
10 | O=C(Cc1ccccc1)NN1C(=O)C(Cl)C1c1cc(Br)ccc1O (configuration not stated) | 9.46 µM (inactive) | 2.2 µM (inactive) | 10.4 µM (inactive) | 4.07 µM (inactive) |  | 4.15 µM (inactive) | 1.29 µM (inactive) | 3.03 µM (inactive) | 7.29 µM (inactive) |  | 7.59 µM (inactive) | 7.64 µM (inactive) | 2.76 µM (inactive) | 10.4 µM (inactive) | 7.45 µM (inactive) | 1.95 µM (inactive) | 7.71 µM (inactive) | 3.69 µM (inactive)
11 | Cc1nc2sccn2c1C(=O)N/N=C1\SCC(=O)N1C | > 100 µM (inactive) | > 100 µM (inactive) | > 100 µM (inactive) | > 100 µM (inactive) | > 100 µM (inactive) | > 100 µM (inactive) | > 100 µM (inactive) | > 100 µM (inactive) | > 100 µM (inactive) |  | > 100 µM (inactive) | > 100 µM (inactive) | > 100 µM (inactive) |  |  | > 100 µM (inactive) | > 100 µM (inactive) | > 100 µM (inactive)
12 | O=C(O)CCCSC(=O)Nc1ccc(/N=N/c2ccccc2)cc1 | > 100 µM (inactive) | > 100 µM (inactive) | > 100 µM (inactive) |  |  | > 100 µM (inactive) | > 100 µM (inactive) | > 100 µM (inactive) | > 100 µM (inactive) | > 100 µM (inactive) |  | > 100 µM (inactive) | > 100 µM (inactive) |  | > 100 µM (inactive) | 56.1 µM (inactive) |  | > 100 µM (inactive)
13 | Cc1cc(C)c2[s+]snc2c1 | > 100 µM (inactive) | 75.7 µM (inactive) | > 100 µM (inactive) | > 100 µM (inactive) |  | 36.6 µM (inactive) | 72.3 µM (inactive) | > 100 µM (inactive) | 47.1 µM (inactive) | 37.7 µM (inactive) | > 100 µM (inactive) | 52.5 µM (inactive) | > 100 µM (inactive) | > 100 µM (inactive) | 39.5 µM (inactive) | 60.5 µM (inactive) | > 100 µM (inactive) | 48.9 µM (inactive)
14 | Cc1cc(-c2ccccc2)cc2[n+]1CC=C2.[O-][Cl+3]([O-])([O-])[O-] | > 100 µM (inactive) | > 100 µM (inactive) | > 100 µM (inactive) |  | 15.5 µM (inactive) |  | > 100 µM (inactive) | 54.6 µM (inactive) | 95.5 µM (inactive) |  |  | 52.7 µM (inactive) | 51.4 µM (inactive) | 35.2 µM (inactive) | 39.4 µM (inactive) | > 100 µM (inactive) |  | > 100 µM (inactive)
15 | Oc1ccccc1-c1cnnc(-c2ccccc2O)c1 |  |  |  | 43.5 µM (inactive) | 24 µM (inactive) | 17.5 µM (inactive) | 25.1 µM (inactive) | 24.1 µM (inactive) | 30.3 µM (inactive) |  |  | 26.5 µM (inactive) | 27.7 µM (inactive) | 20.4 µM (inactive) | 19.7 µM (inactive) | 38.2 µM (inactive) |  | 
16 | CCOP(=O)(OCC)/C(C#N)=C\c1ccsc1 | > 100 µM (inactive) | > 100 µM (inactive) | > 100 µM (inactive) | > 100 µM (inactive) | > 100 µM (inactive) | > 100 µM (inactive) | > 100 µM (inactive) | > 100 µM (inactive) | > 100 µM (inactive) |  | > 100 µM (inactive) | > 100 µM (inactive) | > 100 µM (inactive) | > 100 µM (inactive) | > 100 µM (inactive) | > 100 µM (inactive) |  | > 100 µM (inactive)
17 | CC(=O)O[C@H]1C(=O)[C@@]2(C)C(C(OC(=O)c3ccccc3)C3[C@@H](O)C(OC(=O)[C@@H](O)[C@H](NC(=O)c4ccccc4)c4ccc(C(F)(F)F)cc4)C(C)=C1C3(C)C)[C@]1(OC(C)=O)CO[C@@H]1C[C@@H]2O (some centres not stated) | 16.2 µM (inactive) | 23.9 µM (inactive) | > 25 µM (inactive) | > 25 µM (inactive) |  | 19.2 µM (inactive) | > 25 µM (inactive) | > 25 µM (inactive) | > 25 µM (inactive) |  | 8.26 µM (inactive) | 12.6 µM (inactive) | > 25 µM (inactive) | 7.71 µM (inactive) | 18.1 µM (inactive) | > 25 µM (inactive) | > 25 µM (inactive) | 13.3 µM (inactive)
18 | CC[C@@]1(O)C(=O)OCc2c1cc1n(c2=O)Cc2cc3c(OC)cccc3nc2-1 |  |  | < 0.1 µM (active) | 0.117 µM (active) | 0.0432 µM (active) | < 0.1 µM (active) | 0.558 µM (active) | 2.04 µM (inactive) | < 0.1 µM (active) | 0.6 µM (active) | 0.116 µM (active) |  |  | 0.0622 µM (active) |  | < 0.1 µM (active) |  | 

Source: ChEMBL document CHEMBL1201862, “PubChem BioAssay data set” (2004)
